Legend:
[1] = Stability in organic medium (dimethyl sulfoxide) by UV-Vis spectroscopy; assay type: physicochemical; conditions: band 357-425 nm (λmax in column head)
Protocol: (§1) The stability of the complexes 4-11 in organic and aqueous media was evaluated over 24 h by UV-Vis spectroscopy at room temperature, in dark, on a Jasco V-660 spectrometer using quartz cuvettes (1 cm optical path length). The electronic spectra (270-900 nm) were acquired at regular periods of time (0 h, 0.25 h, 0.5 h, 0.75 h, 1 h, 2 h, 3 h, 4 h, 5 h, 6 h, 24 h) for solutions of 100% dimethyl sulfoxide (complexes 4-11) and 5% dimethyl sulfoxide/95% Dulbecco's Modified Eagle Medium (complexes 4, 5 and 8-11) or 10% dimethyl sulfoxide/90% Dulbecco's Modified Eagle Medium (complexes 6 and 7) at concentrations ranging from 7.0×10^-5 M to 3.0×10^-4 M.

[2] = Stability in aqueous medium (dimethyl sulfoxide/Dulbecco's Modified Eagle Medium) by UV-Vis spectroscopy; assay type: physicochemical; conditions: 10% dimethyl sulfoxide/90% Dulbecco's Modified Eagle Medium; for Relative variation of the maximum absorbance of the π→π* transitions: band 292-296 nm (λmax in column head); for Relative variation of the maximum absorbance of the charge transfer bands: band 358-400 nm (λmax in column head)
Protocol: as §1

CC(=O)C1=C[CH]([Ru-]2([PH](c3ccccc3)(c3ccccc3)c3ccccc3)[n+]3cccc4ccc5ccc[n+]2c5c43)C=C1.O=S(=O)([O-])C(F)(F)F (stereo not drawn) [compound 6]
Relative variation of the maximum absorbance of the charge transfer bands ([1]; time 0 h): 0.0% | Relative variation of the maximum absorbance of the charge transfer bands ([1]; time 0.25 h): −0.1% | Relative variation of the maximum absorbance of the charge transfer bands ([1]; time 0.5 h): 0.2% | Relative variation of the maximum absorbance of the charge transfer bands ([1]; time 0.75 h): 0.0% | Relative variation of the maximum absorbance of the charge transfer bands ([1]; time 1 h): 0.9% | Relative variation of the maximum absorbance of the charge transfer bands ([1]; time 2 h): 2.6% | Relative variation of the maximum absorbance of the charge transfer bands ([1]; time 3 h): 1.3% | Relative variation of the maximum absorbance of the charge transfer bands ([1]; time 4 h): 1.5% | Relative variation of the maximum absorbance of the charge transfer bands ([1]; time 5 h): −0.2% | Relative variation of the maximum absorbance of the charge transfer bands ([1]; time 6 h): −0.3% | Relative variation of the maximum absorbance of the charge transfer bands ([1]; time 24 h): 0.3% | Relative variation of the maximum absorbance of the π→π* transitions ([2]; time 0 h): 0.0% | Relative variation of the maximum absorbance of the charge transfer bands ([2]; time 0 h): 0.0% | Relative variation of the maximum absorbance of the π→π* transitions ([2]; time 0.25 h): −0.4% | Relative variation of the maximum absorbance of the charge transfer bands ([2]; time 0.25 h): 0.0% | Relative variation of the maximum absorbance of the π→π* transitions ([2]; time 0.5 h): 0.4% | Relative variation of the maximum absorbance of the charge transfer bands ([2]; time 0.5 h): 0.4% | Relative variation of the maximum absorbance of the π→π* transitions ([2]; time 0.75 h): 0.3% | Relative variation of the maximum absorbance of the charge transfer bands ([2]; time 0.75 h): 0.3% | Relative variation of the maximum absorbance of the π→π* transitions ([2]; time 1 h): −0.2% | Relative variation of the maximum absorbance of the charge transfer bands ([2]; time 1 h): 0.0% | Relative variation of the maximum absorbance of the π→π* transitions ([2]; time 2 h): 1.0% | Relative variation of the maximum absorbance of the charge transfer bands ([2]; time 2 h): 0.6% | Relative variation of the maximum absorbance of the π→π* transitions ([2]; time 3 h): 2.0% | Relative variation of the maximum absorbance of the charge transfer bands ([2]; time 3 h): 0.8% | Relative variation of the maximum absorbance of the π→π* transitions ([2]; time 4 h): 2.1% | Relative variation of the maximum absorbance of the charge transfer bands ([2]; time 4 h): 0.8% | Relative variation of the maximum absorbance of the π→π* transitions ([2]; time 5 h): 1.3% | Relative variation of the maximum absorbance of the charge transfer bands ([2]; time 5 h): 0.4% | Relative variation of the maximum absorbance of the π→π* transitions ([2]; time 6 h): 1.5% | Relative variation of the maximum absorbance of the charge transfer bands ([2]; time 6 h): 0.2% | Relative variation of the maximum absorbance of the π→π* transitions ([2]; time 24 h): 5.3% | Relative variation of the maximum absorbance of the charge transfer bands ([2]; time 24 h): 1.8%
